Biological target: T1, PDE2A (catalytic domain, 580–919) (Homo sapiens, UniProt O00408)
T1 construct: made in house; host or cells: E. coli BL21 (CodonPlus)
Assay: In vitro PDE2 enzymatic inhibition assay (3H-cGMP substrate)
Type: biochemical
Conditions: for inhibition at 0.1 µM / inhibition at 0.5 µM / Inhibition Ratio (%) 0.5 μM: PDE2; for inhibition at 0.1 µM: compound at 0.1 μM, read-out: Inhibition Ratio (%) 0.1 μM; for inhibition at 0.5 µM / Inhibition Ratio (%) 0.5 μM: compound at 0.5 μM; for inhibition at 0.5 µM: read-out: Inhibition Ratio (%) 0.5 μM; for IC50: means ± SD of three experiments, 3H-cGMP, 25 °C, 15 min, read-out: IC50 (nM) against PDE2
Method: Purification and expression of the recombinant pET15b-PDE2A plasmid (catalytic domain, 580–919) was performed following our previously reported method. The plasmid pET15b-PDE2A (catalytic domain, 580–919) was transferred to thawed competent E. coli BL21 cells (CodonPlus, Agilent Technologies, Santa Clara, CA, USA), which were grown in 2XYT medium with 100 μg/mL ampicillin and 20 μg/mL chloramphenicol at 37 °C until OD600 = 0.6–0.8. Then, 0.1 mM isopropylthiogalactoside was added for induction, and protein expression was induced by continuing to grow the cells at 16 °C for 24 h. After that, bacteria were collected by centrifugation and frozen overnight at −20 °C. The bacteria containing the recombinant plasmid of the target protein were subjected to cell disruption and passed through a Ni-NTA agarose affinity column, Q-Sepharose ion-exchange column and other steps. The purity can be 95% or more, and a typical purification batch produces 10–20 mg of PDE2A protein from 1.0 L of cell culture.
Using the appropriate concentration of ^3H-cGMP as the substrate, different compound solutions were added to the test group, DMSO was added to the negative control and blank control groups, and EHNA was added to the positive control group, followed by protein solution (the proteins were all diluted with Assay Buffer); Assay Buffer was added to the blank group. The enzymatic reaction was performed at room temperature (25 °C) for 15 min, and then, 0.2 M ZnSO4 was added to inactivate PDE2 and to stop the reaction. Then, 0.2 N Ba(OH)2 solution was added to precipitate the reaction product, and unreacted ^3H-cGMP remained in the supernatant. After mixing the system, it was centrifuged. The radioactivity of the supernatant was measured with a liquid scintillation counter, and the inhibitory activity of the compound against PDE2 was calculated. The above test was repeated three times (the IC50 test generally used 9 concentrations, and the single-point test was directly diluted with DMSO to the required concentration).

T1 sequence (O00408 580-919): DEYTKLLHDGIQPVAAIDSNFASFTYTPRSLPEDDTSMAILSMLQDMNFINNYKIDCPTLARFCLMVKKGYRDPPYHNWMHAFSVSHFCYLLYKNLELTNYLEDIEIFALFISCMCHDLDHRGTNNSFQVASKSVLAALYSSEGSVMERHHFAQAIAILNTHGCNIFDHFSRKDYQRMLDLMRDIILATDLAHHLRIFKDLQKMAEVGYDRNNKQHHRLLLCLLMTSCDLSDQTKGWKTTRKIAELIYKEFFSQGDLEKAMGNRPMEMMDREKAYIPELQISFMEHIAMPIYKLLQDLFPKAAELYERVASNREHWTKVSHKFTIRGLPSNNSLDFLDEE

## COc1ccc(OCc2ccc(C(F)(F)F)cc2)c(C2C(C#N)=C(N)Oc3[nH]nc(C)c32)c1 (racemic) [Compound 11h, 6-Amino-4-(5-methoxy-2-((4-(trifluoromethyl)benzyl)oxy)phenyl)-3-methyl-1,4-dihydropyrano[2,3-c]pyrazole-5-carbonitrile]
  inhibition at 0.1 µM: 63.3%
  inhibition at 0.5 µM: 87.3%
  IC50: 75.5 ± 2 nM

## COc1ccc(OCc2ccc(C(F)(F)F)cc2)c(C2C(C#N)=C(N)Oc3[nH]nc(-c4ccccc4)c32)c1 (stereo not shown) [Compound 11s, 6-Amino-4-(5-methoxy-2-((4-(trifluoromethyl)benzyl)oxy)phenyl)-3-phenyl-1,4-dihydropyrano[2,3-c]pyrazole-5-carbonitrile]
  inhibition at 0.1 µM: 46.3%
  inhibition at 0.5 µM: 75.3%
  IC50: 154 ± 6.2 nM

## COc1ccc(OCCCc2ccc(C(F)(F)F)cc2)c(C2C(C#N)=C(N)Oc3[nH]nc(C)c32)c1 (stereo not shown) [Compound 11o, 6-Amino-4-(5-methoxy-2-(3-(4-(trifluoromethyl)phenyl)propoxy)phenyl)-3-methyl-1,4-dihydropyrano[2,3-c]pyrazole-5-carbonitrile]
  inhibition at 0.5 µM: 8.2%

## COc1ccc(OCc2ccc(C(F)(F)F)cc2)c(C2C(C#N)=C(N)Oc3[nH]ncc32)c1 (stereo not shown) [Compound 11r, 6-Amino-4-(5-methoxy-2-((4-(trifluoromethyl)benzyl)oxy)phenyl)-1,4-dihydropyrano[2,3-c]pyrazole-5-carbonitrile]
  inhibition at 0.1 µM: 22.7%
  inhibition at 0.5 µM: 60.5%
  IC50: 445.3 ± 3.4 nM

## COc1cc(C2C(C#N)=C(N)Oc3[nH]nc(C)c32)c(OCc2ccc(C(F)(F)F)cc2)cc1Cl (stereo not shown) [Compound 11t, 6-Amino-4-(4-chloro-5-methoxy-2-((4-(trifluoromethyl)benzyl)oxy)phenyl)-3-methyl-1,4-dihydropyrano[2,3-c]pyrazole-5-carbonitrile]
  inhibition at 0.5 µM: 10.3%

## COc1ccc(OCc2ccc(OC(F)(F)F)cc2)c(C2C(C#N)=C(N)Oc3[nH]nc(C)c32)c1 (stereo not shown) [Compound 11i, 6-Amino-4-(5-methoxy-2-((4-(trifluoromethoxy)benzyl)oxy)phenyl)-3-methyl-1,4-dihydropyrano[2,3-c]pyrazole-5-carbonitrile]
  inhibition at 0.5 µM: 48.8%

## COc1cc(OCc2ccc(Cl)cc2)cc(C2C(C#N)=C(N)Oc3[nH]nc(C)c32)c1 (stereo not shown) [Compound 4c, 6-Amino-4-(3-((4-chlorobenzyl)oxy)-5-methoxyphenyl)-3-methyl-1,4-dihydropyrano[2,3-c]pyrazole-5-carbonitrile]
  inhibition at 0.5 µM: 43.4%

## Cc1n[nH]c2c1C(c1cc(C(C)(C)C)ccc1OCc1ccc(C(F)(F)F)cc1)C(C#N)=C(N)O2 (stereo not shown) [Compound 11j, 6-Amino-4-(5-(tert-butyl)-2-((4-(trifluoromethyl)benzyl)oxy)phenyl)-3-methyl-1,4-dihydropyrano[2,3-c]pyrazole-5-carbonitrile]
  Inhibition Ratio (%) 0.5 μM: no inhibition
  inhibition at 0.5 µM: 0%

## Cc1ccc(OCc2ccc(C(F)(F)F)cc2)c(C2C(C#N)=C(N)Oc3[nH]nc(C)c32)c1 (stereo not shown) [Compound 11k, 6-Amino-3-methyl-4-(5-methyl-2-((4-(trifluoromethyl)benzyl)oxy)phenyl)-1,4-dihydropyrano[2,3-c]pyrazole-5-carbonitrile]
  inhibition at 0.1 µM: 38.3%
  inhibition at 0.5 µM: 72%
  IC50: 154 ± 3.3 nM

## COc1ccc(OC(=O)CCc2ccc(Cl)cc2)c(C2C(C#N)=C(N)Oc3[nH]nc(C)c32)c1 (stereo not shown) [Compound 8c, 2-(6-Amino-5-cyano-3-methyl-1,4-dihydropyrano[2,3-c]pyrazol-4-yl)-4-methoxyphenyl-3-(4-chlorophenyl)propanoate]
  inhibition at 0.5 µM: 4.12%

## COc1ccc(OCc2ccc(C(F)(F)F)cc2)c(C2C(C#N)=C(N)Oc3[nH]nc(C)c32)c1 (single isomer, unassigned; (-)) [(−)-11h]
  inhibition at 0.5 µM: 87.3%
After chiral resolution of 11h
  PDE2 inhibitory activity of resolved isomer (in words): almost inactive

## COc1ccc(OCc2ccccc2)c(C2C(C#N)=C(N)Oc3[nH]nc(C)c32)c1 (stereo not shown) [Compound 11d, 6-Amino-4-(2-(benzyloxy)-5-methoxyphenyl)-3-methyl-1,4-dihydropyrano [2,3-c] pyrazole-5-carbonitrile]
  inhibition at 0.5 µM: 17.7%

## COc1ccc(C2C(C#N)=C(N)Oc3[nH]nc(C)c32)cc1OCc1ccc(Cl)cc1 (stereo not shown) [4a (LZ77), 6-Amino-4-(3-((4-chlorobenzyl)oxy)-4-methoxyphenyl)-3-methyl-1,4-dihydropyrano[2,3-c]pyrazole-5-carbonitrile]
  inhibition at 0.1 µM: 18.2%
  inhibition at 0.5 µM: 57.2%
  IC50: 407 ± 37.7 nM

## COc1ccc(OC(=O)c2ccc(OC(F)(F)F)cc2)c(C2C(C#N)=C(N)Oc3[nH]nc(C)c32)c1 (stereo not shown) [Compound 8a, 2-(6-Amino-5-cyano-3-methyl-1,4-dihydropyrano[2,3-c]pyrazol-4-yl)-4-methoxyphenyl-4-(trifluoromethoxy)benzoate]
  inhibition at 0.5 µM: 13.4%

## COc1ccc(C2C(C#N)=C(N)Oc3[nH]nc(C)c32)c(OCc2ccccc2)c1 (stereo not shown) [Compound 11b, 6-Amino-4-(2-(benzyloxy)-4-methoxyphenyl)-3-methyl-1,4-dihydropyrano [2,3-c] pyrazole-5-carbonitrile]
  inhibition at 0.5 µM: 14.3%

## Cc1n[nH]c2c1C(c1cc(OC(F)(F)F)ccc1OCc1ccc(C(F)(F)F)cc1)C(C#N)=C(N)O2 (stereo not shown) [Compound 11p, 6-Amino-3-methyl-4-(5-(trifluoromethoxy)-2-((4-(trifluoromethyl)benzyl)oxy)phenyl)-1,4-dihydropyrano[2,3-c]pyrazole-5-carbonitrile]
  inhibition at 0.5 µM: 17.4%

## COc1ccc(OC(=O)c2ccc(C(F)(F)F)cc2)c(C2C(C#N)=C(N)Oc3[nH]nc(C)c32)c1 (stereo not shown) [Compound 8b, 2-(6-Amino-5-cyano-3-methyl-1,4-dihydropyrano[2,3-c]pyrazol-4-yl)-4-methoxyphenyl-4-(trifluoromethyl)benzoate]
  inhibition at 0.5 µM: 39.1%

## Cc1n[nH]c2c1C(c1cc(O)ccc1OCc1ccc(C(F)(F)F)cc1)C(C#N)=C(N)O2 (stereo not shown) [Compound 11m, 6-Amino-4-(5-hydroxy-2-((4-(trifluoromethyl)benzyl)oxy)phenyl)-3-methyl-1,4-dihydropyrano[2,3-c]pyrazole-5-carbonitrile]
  Inhibition Ratio (%) 0.5 μM: no inhibition
  inhibition at 0.5 µM: 0%

## COc1ccc(OCc2ccc(F)cc2)c(C2C(C#N)=C(N)Oc3[nH]nc(C)c32)c1 (stereo not shown) [Compound 11g, 6-Amino-4-(2-((4-fluorobenzyl)oxy)-5-methoxyphenyl)-3-methyl-1,4-dihydropyrano[2,3-c]pyrazole-5-carbonitrile]
  inhibition at 0.1 µM: 15.1%
  inhibition at 0.5 µM: 44.4%
  IC50: 807 ± 15.3 nM

## COc1ccc(COc2ccc(OC)cc2C2C(C#N)=C(N)Oc3[nH]nc(C)c32)cc1 (stereo not shown) [Compound 11e, 6-Amino-4-(5-methoxy-2-((4-methoxybenzyl)oxy)phenyl)-3-methyl-1,4-dihydropyrano[2,3-c]pyrazole-5-carbonitrile]
  inhibition at 0.1 µM: 17.5%
  inhibition at 0.5 µM: 48%
  IC50: 458 ± 16.2 nM

## COc1ccc(OC(=O)CCCc2ccc(Cl)cc2)c(C2C(C#N)=C(N)Oc3[nH]nc(C)c32)c1 (stereo not shown) [Compound 8d, 2-(6-Amino-5-cyano-3-methyl-1,4-dihydropyrano[2,3-c]pyrazol-4-yl)-4-methoxyphenyl-4-(4-chlorophenyl)butanoate]
  inhibition at 0.5 µM: 6.12%

## COc1ccc(OCCc2ccc(C(F)(F)F)cc2)c(C2C(C#N)=C(N)Oc3[nH]nc(C)c32)c1 (stereo not shown) [Compound 11n, 6-Amino-4-(5-methoxy-2-(4-(trifluoromethyl)phenethoxy)phenyl)-3-methyl-1,4-dihydropyrano[2,3-c]pyrazole-5-carbonitrile]
  inhibition at 0.5 µM: 20.7%

## COc1ccc(OCc2ccc(C(F)(F)F)cc2)c(C2C(C#N)=C(N(C)C)Oc3[nH]nc(C)c32)c1 (stereo not shown) [Compound 16, 6-(Dimethylamino)-4-(5-methoxy-2-((4-(trifluoromethyl)benzyl)oxy)phenyl)-3-methyl-1,4-dihydropyrano[2,3-c]pyrazole-5-carbonitrile]
  inhibition at 0.5 µM: 9.6%

## COc1cc(OCc2ccc(C(F)(F)F)cc2)cc(C2C(C#N)=C(N)Oc3[nH]nc(C)c32)c1 (stereo not shown) [Compound 4b, 6-Amino-4-(3-methoxy-5-((4-(trifluoromethyl)benzyl)oxy)phenyl)-3-methyl-1,4-dihydropyrano[2,3-c]pyrazole-5-carbonitrile]
  inhibition at 0.5 µM: 14.1%

## CCCCCC[C@@H]([C@@H](C)O)n1cnc2c(N)ncnc21 (racemic) [EHNA, erythro-9-(2-hydroxy-3-nonyl) adenine, reference compound]
  IC50: 2460 nM

## Cc1n[nH]c2c1C(c1cc(OC(F)F)ccc1OCc1ccc(C(F)(F)F)cc1)C(C#N)=C(N)O2 (stereo not shown) [Compound 11q, 6-Amino-4-(5-(difluoromethoxy)-2-((4-(trifluoromethyl)benzyl)oxy)phenyl)-3-methyl-1,4-dihydropyrano[2,3-c]pyrazole-5-carbonitrile]
  inhibition at 0.5 µM: 6.6%
